Earlier results on 1 molecule are cited in patent EP0127274A2, “Esters of metronidazole and compositions containing them” (THE UPJOHN COMPANY, priority 1983, dated 1984).

For the data set the following is noted: background statement.

The structures appear in SMILES notation.

With `Cc1ncc([N+](=O)[O-])n1CCO` [metronidazole, 1-(O-hydroxyethyl)-2-methyl-5-nitroimidazole], the solubility in water entry is given as “approximately 10 mg/ml”.
